Data reported in patent US20260317356A1, “SMALL MOLECULE MODULATORS OF OGG1” (AZKARRA THERAPEUTICS, INC., priority 2023, published 2026).

Biological target: hOGG1 (Homo sapiens, UniProt O15527)
Assay: Biochemical fluorescence assay to measure enzymatic activity of hOGG1 (OGG1/APEX IC50)
Parameters: Protein His-hOGG1 (12-323) was prepared; His (N); host or cells: E. coli
Details: 1 nM OGG1+2 nM APEX+6 nM dsDNA (8-oxo-dG substrate); pH 7.5; RT 40 min; read-out: OGG1/APEX IC50
Method in brief: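 Coupled glycosylase/AP-endonuclease read-out: 8-oxo-dG-containing dsDNA (6 nM) cleaved by 1 nM His-hOGG1 (12-323) plus 2 nM APEX1 over 40 min at room temperature, after 20 min enzyme–compound preincubation; buffer 20 mM Tris pH 7.5, 100 mM KCl, 0.1% BSA, 0.01% Tween. IC50 comes from sigmoidal 3-parameter fitting of % inhibition derived from TAMRA signal.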

hOGG1, sequence (O15527 12-323): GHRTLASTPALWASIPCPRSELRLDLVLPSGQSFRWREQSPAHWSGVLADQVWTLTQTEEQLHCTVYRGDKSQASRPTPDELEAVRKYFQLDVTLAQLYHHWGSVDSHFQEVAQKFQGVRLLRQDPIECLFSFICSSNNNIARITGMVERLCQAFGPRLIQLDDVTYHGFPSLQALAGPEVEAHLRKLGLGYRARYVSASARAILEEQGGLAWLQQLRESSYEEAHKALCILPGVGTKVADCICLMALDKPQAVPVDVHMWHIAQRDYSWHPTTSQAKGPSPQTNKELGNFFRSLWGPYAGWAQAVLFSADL

| Structure (SMILES) | IC50 |
| --- | --- |
| COc1cc(NC(=O)N2CCC(N3Cc4ccccc4NC3=O)CC2)ccc1C [Example 64, N-(3-methoxy-4-methylphenyl)-4-(2-oxo-1,2-dihydroquinazolin-3(4H)-yl)piperidine-1-carboxamide] | 0.1 to 1 µM |
| O=C1c2cccc(Br)c2CN1[C@H]1CC[C@@H](C(=O)Nc2ccc3c(c2)OC(F)(F)O3)CC1 [Example 186, (1s,4s)-4-(4-Bromo-1-oxoisoindolin-2-yl)-N-(2,2-difluorobenzo[d][1,3]dioxol-5-yl)cyclohexanecarboxamide] | > 10 µM |
| Cc1cccc2c1CN([C@H]1CC[C@@H](C(=O)Nc3ccc4ncccc4c3)CC1)C2=O [Example 228, (1s,4s)-4-(4-Methyl-1-oxoisoindolin-2-yl)-N-(quinolin-6-yl)cyclohexanecarboxamide] | 1 to 10 µM |
| COCc1ccc(C)c2c1NC(=O)N([C@H]1CC[C@@H](C(=O)Nc3ccc(C)c(OC)c3)CC1)C2 [Example 1, (1s,4s)-N-(3-Methoxy-4-methylphenyl)-4-(8-(methoxymethyl)-5-methyl-2-oxo-1,2-dihydroquinazolin-3(4H)-yl)cyclohexanecarboxamide] | 1 to 10 µM |
| COc1ccc(NC(=O)[C@H]2CC[C@@H](N3Cc4c(C)cccc4C3=O)CC2)cc1C(F)(F)F [Example 231, (1s,4s)-N-(4-Methoxy-3-(trifluoromethyl)phenyl)-4-(4-methyl-1-oxoisoindolin-2-yl)cyclohexanecarboxamide] | 0.1 to 1 µM |
| COc1cc(NC(=O)[C@H]2CC[C@@H](N3Cc4c(C)ccc(CNS(C)(=O)=O)c4NC3=O)CC2)ccc1C [Example 24, (1s,4s)-N-(3-Methoxy-4-methylphenyl)-4-(5-methyl-8-(methylsulfonamidomethyl)-2-oxo-1,2-dihydroquinazolin-3(4H)-yl)cyclohexanecarboxamide] | < 0.1 µM |
| COc1cc(NC(=O)[C@H]2CC[C@@H](N3Cc4c(C)cc(O)cc4OC3=O)CC2)ccc1C [Example 116, (1s,4s)-4-(7-hydroxy-5-methyl-2-oxo-2H-benzo[e][1,3]oxazin-3(4H)-yl)-N-(3-methoxy-4-methylphenyl)cyclohexane-1-carboxamide] | 0.1 to 1 µM |
| Cc1ccc(NC(=O)[C@H]2CC[C@@H](N3Cc4c(C)cccc4C3=O)CC2)cc1C [Example 236, (1s,4s)-N-(3,4-Dimethylphenyl)-4-(4-methyl-1-oxoisoindolin-2-yl)cyclohexanecarboxamide] | 1 to 10 µM |
| COc1cc(NC(=O)[C@H]2CC[C@@H](N3Cc4c(C)ccc(CN(C)C)c4NC3=O)CC2)ccc1C [Example 52, (1s,4s)-4-(8-((Dimethylamino)methyl)-5-methyl-2-oxo-1,2-dihydroquinazolin-3(4H)-yl)-N-(3-methoxy-4-methylphenyl)cyclohexanecarboxamide] | < 0.1 µM |
| COc1cc(NC(=O)[C@H]2CC[C@@H](N3Cc4c(ccc(OC)c4C)NC3=O)CC2)ccc1C [Example 51, (1s,4s)-N-(3-Methoxy-4-methylphenyl)-4-(6-methoxy-5-methyl-2-oxo-1,2-dihydroquinazolin-3(4H)-yl)cyclohexanecarboxamide] | 0.1 to 1 µM |
| COc1cc(NC(=O)[C@H]2CC[C@@H](N3Cc4c(Br)cc(NCCN5CCOCC5)cc4C3=O)CC2)ccc1C [Example 203, (1s,4s)-4-(4-Bromo-6-(2-morpholinoethylamino)-1-oxoisoindolin-2-yl)-N-(3-methoxy-4-methylphenyl)cyclohexanecarboxamide] | 0.1 to 1 µM |
| COc1cc(NC(=O)[C@H]2CC[C@@H](N3C(=O)c4c(C)ccc(C)c4C3=O)CC2)ccc1C [Example 253, (1s,4s)-4-(4,7-Dimethyl-1,3-dioxoisoindolin-2-yl)-N-(3-methoxy-4-methylphenyl)cyclohexanecarboxamide] | 0.1 to 1 µM |
| CCc1ccc(NC(=O)[C@H]2CC[C@@H](N3Cc4c(C)cccc4C3=O)CC2)cc1OC [Example 123, (1s,4s)-N-(4-Ethyl-3-methoxyphenyl)-4-(4-methyl-1-oxoisoindolin-2-yl)cyclohexane-1-carboxamide] | 0.1 to 1 µM |
| COc1cc(NC(=O)[C@H]2CC[C@@H](N3Cc4c(C)cccc4C3=O)CC2)ccc1Br [Example 120, (1s,4s)-N-(4-Bromo-3-methoxyphenyl)-4-(4-methyl-1-oxoisoindolin-2-yl)cyclohexane-1-carboxamide] | 0.1 to 1 µM |
| COc1ccc(NC(=O)[C@]2(C)CC[C@@H](N3Cc4c(C)cccc4NC3=O)CC2)cc1C (single isomer, unassigned) [Example 106, (1r,4r)-N-(4-methoxy-3-methylphenyl)-1-methyl-4-(5-methyl-2-oxo-1,2-dihydroquinazolin-3(4H)-yl)cyclohexanecarboxamide] | 1 to 10 µM |
| Cc1cccc2c1CN([C@H]1CC[C@@H](C(=O)Nc3cc[nH]c(=O)c3)CC1)C2=O [Example 250, (1s,4s)-4-(4-methyl-1-oxoisoindolin-2-yl)-N-(2-oxo-1,2-dihydropyridin-4-yl)cyclohexanecarboxamide] | > 10 µM |
| COc1cc(NC(=O)[C@H]2CC[C@@H](N3Cc4c(C)ccc(OCC5(C)COC5)c4NC3=O)CC2)ccc1C [Example 23, (1s,4s)-N-(3-Methoxy-4-methylphenyl)-4-(5-methyl-8-((3-methyloxetan-3-yl)methoxy)-2-oxo-1,2-dihydroquinazolin-3(4H)-yl)cyclohexanecarboxamide] | 0.1 to 1 µM |
| Cc1cccc2c1CN([C@H]1CC[C@@H](C(=O)Nc3ccc4cc[nH]c4c3)CC1)C(=O)N2 [Example 113, (1s,4s)-N-(1H-indol-6-yl)-4-(5-methyl-2-oxo-1,2-dihydroquinazolin-3(4H)-yl)cyclohexanecarboxamide] | 0.1 to 1 µM |
| CCc1ccc(NC(=O)[C@H]2CC[C@@H](N3Cc4c(C)cccc4NC3=O)CC2)cc1OC [Example 95, (1s,4s)-N-(4-ethyl-3-methoxyphenyl)-4-(5-methyl-2-oxo-1,2-dihydroquinazolin-3(4H)-yl)cyclohexanecarboxamide] | 0.1 to 1 µM |
| COc1cc(NC(=O)[C@H]2CC[C@H](N3Cc4c(C)cc(NCCN(C)C)cc4NC3=O)CC2)ccc1C [Example 85, (1r,4r)-4-(7-(2-(dimethylamino)ethylamino)-5-methyl-2-oxo-1,2-dihydroquinazolin-3(4H)-yl)-N-(3-methoxy-4-methylphenyl)cyclohexanecarboxamide] | 0.1 to 1 µM |
| COc1ccc(NC(=O)[C@]2(C)CC[C@H](N3Cc4c(C)cccc4NC3=O)CC2)cc1C#N (single isomer, unassigned) [Example 107, (1s,4s)-N-(3-cyano-4-methoxyphenyl)-1-methyl-4-(5-methyl-2-oxo-1,2-dihydroquinazolin-3(4H)-yl)cyclohexanecarboxamide] | < 0.1 µM |
| COc1cc(NC(=O)[C@H]2CC[C@@H](N3Cc4c(cccc4C4CCC4)C3=O)CC2)ccc1C [Example 152, (1s,4s)-4-(4-Cyclobutyl-1-oxoisoindolin-2-yl)-N-(3-methoxy-4-methylphenyl)cyclohexanecarboxamide] | > 10 µM |
| CCc1cccc2c1CN([C@H]1CC[C@@H](C(=O)Nc3ccc(C)c(OC)c3)CC1)C2=O [Example 156, (1s,4s)-4-(4-Ethyl-1-oxoisoindolin-2-yl)-N-(3-methoxy-4-methylphenyl)cyclohexanecarboxamide] | 1 to 10 µM |
| COc1cc(NC(=O)[C@H]2CC[C@@H](N3Cc4c(Br)cc(NC(=O)Cc5c[nH]cn5)cc4C3=O)CC2)ccc1C [Example 201, (1s,4s)-4-(6-(2-(1H-Imidazol-4-yl)acetamido)-4-bromo-1-oxoisoindolin-2-yl)-N-(3-methoxy-4-methylphenyl)cyclohexanecarboxamide] | 0.1 to 1 µM |
| COc1cc(NC(=O)[C@H]2CC[C@@H](N3Cc4c(C)cc(OCC5(F)CNC5)cc4C3=O)CC2)ccc1C [Example 141, (1s,4s)-4-(6-((3-Fluoroazetidin-3-yl)methoxy)-4-methyl-1-oxoisoindolin-2-yl)-N-(3-methoxy-4-methylphenyl)cyclohexanecarboxamide] | < 0.1 µM |
| COc1cccc(NC(=O)[C@H]2CC[C@@H](N3Cc4c(C)cccc4C3=O)CC2)n1 [Example 233, (1s,4s)-N-(6-Methoxypyridin-2-yl)-4-(4-methyl-1-oxoisoindolin-2-yl)cyclohexanecarboxamide] | 1 to 10 µM |
| COc1cc(NC(=O)[C@H]2CC[C@@H](N3Cc4c(C)ccc(Cl)c4C3=O)CC2)ccc1C [Example 144, (1s,4s)-4-(7-Chloro-4-methyl-1-oxoisoindolin-2-yl)-N-(3-methoxy-4-methylphenyl)cyclohexanecarboxamide] | < 0.1 µM |
| COc1cc(NC(=O)[C@H]2CC[C@@H](N3Cc4c(CN)cccc4C3=O)CC2)ccc1C [Example 134, (1s,4s)-4-(4-(aminomethyl)-1-oxoisoindolin-2-yl)-N-(3-methoxy-4-methylphenyl)cyclohexane-1-carboxamide] | > 10 µM |
| COc1ccc(NC(=O)[C@H]2CC[C@@H](N3Cc4c(C)cccc4C3=O)CC2)cc1F [Example 224, (1s,4s)-N-(3-Fluoro-4-methoxyphenyl)-4-(4-methyl-1-oxoisoindolin-2-yl)cyclohexanecarboxamide] | 0.1 to 1 µM |
| C=C(C)c1cccc2c1CN([C@H]1CC[C@@H](C(=O)Nc3ccc(C)c(OC)c3)CC1)C2=O [Example 157, (1s,4s)-N-(3-Methoxy-4-methylphenyl)-4-(1-oxo-4-(prop-1-en-2-yl)isoindolin-2-yl)cyclohexanecarboxamide] | > 10 µM |

Same assay, conditions: OGG1/APEX IC50, 1 nM OGG1+2 nM APEX+6 nM dsDNA (8-oxo-dG substrate); pH 7.5; RT 40 min

| Structure (SMILES) | IC50 |
| --- | --- |
| COc1cc(NC(=O)[C@H]2CC[C@@H](N3Cc4c(C)cc(N)cc4C3=O)CC2)ccc1C [Example 192, (1s,4s)-4-(6-Amino-4-methyl-1-oxoisoindolin-2-yl)-N-(3-methoxy-4-methylphenyl)cyclohexanecarboxamide] | < 0.1 µM |
